Laboratory results as given in US8354436B2 (4SC Discovery GmbH, priority 2011, dated 2013).
pIC50: −log10 of the molar value. Read-outs that look alike come from different tables or passages of the source.

Legend:
[1] = system: IL-17FF; test: IL-17FF production by PHA-stimulated human PBMC (human IL-17F ELI-Pair); assay type: cell-based; settings: 48 hours
Experimental: (§1) Analysis of Proliferation of and Cytokine Production by Human PBMC Stimulated with PHA
(§2) Peripheral blood mononuclear cells (PBMC) from healthy human donors were purified using Accuspin™ System-Histopaque-1077 (Sigma) according to the protocol recommended by the manufacturer. Purified PBMC were then washed twice with phosphate-buffered saline (PBS) and resuspended in RPMI1640 culture medium supplemented with 10% dialyzed heat inactivated fetal calf serum, 1.5 mM L-glutamine, 100 U penicillin/ml, and […] (all from PAN Biotech, Aidenbach, Germany). For stimulation, PBMC were seeded at 1×10^5 cells/well, activated with 2 μg/ml phytohaemagglutinin (PHA, Sigma) and incubated with the test compounds for 48 hours. IL-17A, IL-17F and INF-γ were then determined in the culture supernatant using a Luminex BioPlex system, following the manufacturer's instructions (BioRad, Munich, Germany). For screening, compounds were used at 10, 1, 0.1 and 0.01 μM. To determine the IC50, compounds were titrated semilogarithmically.
(§3) Cytokines were determined in the aforementioned culture supernatant using the following methods: IL-17AA/AF was measured using the Luminex BioPlex system (BioRad, Munich, Germany); IL-17AA using the human homodimer IL-17A ELISA Ready Set Go Kit from eBioscience (Frankfurt, Germany); IL-17FF using the human IL-17F ELI-Pair from Hölzel DiagnosticaGmBH (Köln, Germany); and IFN-γ using the OptEIA human IFN-g ELISA from BD Bioscience (Heidelberg, Germany), all following the manufacturer's instructions.

[2] = system: IFN-γ; test: IFN-γ production by PHA-stimulated human PBMC (OptEIA human IFN-g ELISA); assay type: cell-based; settings: 48 hours
Experimental: as §1, §2, §3

[3] = PHA-stimulated human PBMC, column B, read-out: IC50 (IL-17FF)
[4] = PHA-stimulated human PBMC, column C, read-out: IC50 (IFNγ)
[5] = human PBMC, 2 μg/ml PHA, read-out: B: IC50 (IL-17FF)
[6] = human PBMC, 2 μg/ml PHA, read-out: C: IC50 (IFNγ)

pIC50 [1, 3]	pIC50 [2, 4]	pIC50 [1, 5]	pIC50 [2, 6]	Compound
5.00 to 6.00	–	–	–	CNC(=O)c1c(-c2ccccc2F)noc1-c1cnn(-c2cccc(F)c2)c1C(F)(F)F [Example I-93, 3-(2-fluorophenyl)-5-(1-(3-fluorophenyl)-5-(trifluoromethyl)-1H-pyrazol-4-yl)-N-methylisoxazole-4-carboxamide]
6.00 to 7.00	6.00 to 7.00	–	–	COC(=O)c1c(-c2c(F)cccc2Cl)noc1-c1cnn(-c2ccccc2OC)c1C(F)(F)F [Example I-52, methyl 3-(2-chloro-6-fluorophenyl)-5-(1-(2-methoxyphenyl)-5-(trifluoromethyl)-1H-pyrazol-4-yl)isoxazole-4-carboxylate]
5.00 to 6.00	5.00 to 6.00	–	–	COC(=O)c1c(-c2c(F)cccc2Cl)noc1-c1cnn(-c2ccc([N+](=O)[O-])cc2)c1C(F)(F)F [Example I-69, methyl 3-(2-chloro-6-fluorophenyl)-5-(1-(4-nitrophenyl)-5-(trifluoromethyl)-1H-pyrazol-4-yl)isoxazole-4-carboxylate]
6.00 to 7.00	6.00 to 7.00	–	–	O=C(c1c(-c2c(F)cccc2Cl)noc1-c1cnn(-c2ccccc2F)c1C(F)(F)F)N1CCCC1 [Example I-22, (3-(2-chloro-6-fluorophenyl)-5-(1-(2-fluorophenyl)-5-(trifluoromethyl)-1H-pyrazol-4-yl)isoxazol-4-yl)(pyrrolidin-1-yl)methanone]
–	–	5.00 to 6.00	6.00 to 7.00	CC(=O)Nc1cccc(-n2ncc(-c3onc(-c4c(F)cccc4Cl)c3-c3nnc(C)o3)c2C(F)(F)F)c1 [Example B-11, N-(3-(4-(3-(2-chloro-6-fluorophenyl)-4-(5-methyl-1,3,4-oxadiazol-2-yl)isoxazol-5-yl)-5-(trifluoromethyl)-1H-pyrazol-1-yl)phenyl)acetamide]
5.00 to 6.00	5.00 to 6.00	–	–	Fc1cc(F)c(F)c(-n2ncc(-c3onc(-c4c(F)cccc4Cl)c3Br)c2C(F)(F)F)c1F [Example I-144, 4-bromo-3-(2-chloro-6-fluorophenyl)-5-(1-(2,3,5,6-tetrafluorophenyl)-5-(trifluoromethyl)-1H-pyrazol-4-yl)isoxazole]
5.00 to 6.00	–	–	–	CNC(=O)c1c(-c2c(F)cccc2Cl)noc1-c1cnn(-c2cccc(NC(C)=O)c2)c1C(F)(F)F [IB-91, 5-(1-(3-acetamidophenyl)-5-(trifluoromethyl)-1H-pyrazol-4-yl)-3-(2-chloro-6-fluorophenyl)-N-methylisoxazole-4-carboxamide]
–	–	5.00 to 6.00	5.00 to 6.00	CC(=O)Nc1cccc(-n2ncc(-c3onc(-c4c(F)cccc4Cl)c3-c3nnco3)c2C(F)(F)F)c1 [Example B-13, N-(3-(4-(3-(2-chloro-6-fluorophenyl)-4-(1,3,4-oxadiazol-2-yl)isoxazol-5-yl)-5-(trifluoromethyl)-1H-pyrazol-1-yl)phenyl)acetamide]
5.00 to 6.00	5.00 to 6.00	–	–	CCOC(=O)c1csc(-n2ncc(-c3onc(-c4c(F)cccc4Cl)c3C(=O)OC)c2C(F)(F)F)n1 [Example I-53, methyl 3-(2-chloro-6-fluorophenyl)-5-(1-(4-(ethoxycarbonyl)thiazol-2-yl)-5-(trifluoromethyl)-1H-pyrazol-4-yl)isoxazole-4-carboxylate]
5.00 to 6.00	5.00 to 6.00	–	–	CNC(=O)c1c(-c2c(F)cccc2Cl)noc1-c1cnn(-c2ccncc2)c1C(F)(F)F [IB-58, 3-(2-chloro-6-fluorophenyl)-N-methyl-5-(1-(pyridin-4-yl)-5-(trifluoromethyl)-1H-pyrazol-4-yl)isoxazole-4-carboxamide]
5.00 to 6.00	–	–	–	Fc1cccc(Cl)c1-c1noc(-c2cnn(-c3ccc(OC(F)(F)F)cc3)c2C(F)(F)F)c1Br [IB-25, 4-bromo-3-(2-chloro-6-fluorophenyl)-5-(1-(4-(trifluoromethoxy)phenyl)-5-(trifluoromethyl)-1H-pyrazol-4-yl)isoxazole]
5.00 to 6.00	5.00 to 6.00	–	–	COC(=O)c1c(-c2c(F)cccc2Cl)noc1-c1cnn(-c2ccc(S(N)(=O)=O)cc2)c1C(F)(F)F [Example I-86, methyl 3-(2-chloro-6-fluorophenyl)-5-(1-(4-sulfamoylphenyl)-5-(trifluoromethyl)-1H-pyrazol-4-yl)isoxazole-4-carboxylate]
5.00 to 6.00	5.00 to 6.00	–	–	CC(=O)Nc1cccc(-n2ncc(-c3onc(-c4c(F)cccc4Cl)c3C(=O)N3CCCO3)c2C(F)(F)F)c1 [IB-88, N-(3-(4-(3-(2-chloro-6-fluorophenyl)-4-(isoxazolidine-2-carbonyl)isoxazol-5-yl)-5-(trifluoromethyl)-1H-pyrazol-1-yl)phenyl)acetamide]
5.00 to 6.00	5.00 to 6.00	–	–	COc1cc(OC)c(CNC(=O)c2c(-c3c(F)cccc3Cl)noc2-c2cnn(-c3ccccc3F)c2C(F)(F)F)c(OC)c1 [Example I-2, 3-(2-chloro-6-fluorophenyl)-5-(1-(2-fluorophenyl)-5-(trifluoromethyl)-1H-pyrazol-4-yl)-N-(2,4,6-trimethoxyben-zyl)isoxazole-4-carboxamide]
5.00 to 6.00	5.00 to 6.00	–	–	CCOC(=O)c1c(-c2c(F)cccc2Cl)noc1-c1cnn(Cc2ccccn2)c1C(F)(F)F [IB-104, ethyl 3-(2-chloro-6-fluorophenyl)-5-(1-(pyridin-2-ylmethyl)-5-(trifluoromethyl)-1H-pyrazol-4-yl)isoxazole-4-carboxylate]
5.00 to 6.00	5.00 to 6.00	–	–	CON(C)C(=O)c1c(-c2c(F)cccc2Cl)noc1-c1cnn(-c2cccc(S(N)(=O)=O)c2)c1C(F)(F)F [IB-66, 3-(2-chloro-6-fluorophenyl)-N-methoxy-N-methyl-5-(1-(3-sulfamoylphenyl)-5-(trifluoromethyl)-1H-pyrazol-4-yl)isoxazole-4-carboxamide]
5.00 to 6.00	–	–	–	CCOC(=O)c1c(-c2ccc(Cl)cc2)noc1-c1cnn(-c2ccc(F)cc2)c1C(F)(F)F [Example I-78, ethyl 3-(4-chlorophenyl)-5-(1-(4-fluorophenyl)-5-(trifluoromethyl)-1H-pyrazol-4-yl)isoxazole-4-carboxylate]
5.00 to 6.00	–	–	–	CNC(=O)c1c(-c2ccc(Cl)c(Cl)c2)noc1-c1cnn(-c2cccc(F)c2)c1C(F)(F)F [Example I-98, 3-(3,4-dichlorophenyl)-5-(1-(3-fluorophenyl)-5-(trifluoromethyl)-1H-pyrazol-4-yl)-N-methylisoxazole-4-carboxamide]
5.00 to 6.00	–	–	–	CNC(=O)c1c(-c2c(F)cccc2Cl)noc1-c1cnn(-c2ccc(OC(F)(F)F)cc2)c1C(F)(F)F [Example I-56, 3-(2-chloro-6-fluorophenyl)-N-methyl-5-(1-(4-(trifluoromethoxy)phenyl)-5-(trifluoromethyl)-1H-pyrazol-4-yl)isoxazole-4-carboxamide]
5.00 to 6.00	–	–	–	CNC(=O)c1c(-c2c(F)cccc2Cl)noc1-c1cnn(-c2ccccc2Cl)c1C(F)(F)F [IB-50, 3-(2-chloro-6-fluorophenyl)-5-(1-(2-chlorophenyl)-5-(trifluoromethyl)-1H-pyrazol-4-yl)-N-methylisoxazole-4-carboxamide]
5.00 to 6.00	–	–	–	Fc1cccc(-n2ncc(-c3onc(-c4c(F)cccc4Cl)c3C(=S)N3CCOCC3)c2C(F)(F)F)c1 [Example I-129, (3-(2-chloro-6-fluorophenyl)-5-(1-(3-fluorophenyl)-5-(trifluoromethyl)-1H-pyrazol-4-yl)isoxazol-4-yl)(morpholino)meth-anethione]
